Earlier results as cited in patent publication US12133912B2, “Stable pharmaceutical compositions of succinylcholine chloride” (Slayback Pharma LLC., priority 2021, dated 2024).

Key:
[1] = biological target: T1, cholinergic receptors of the motor end plate (Homo sapiens, UniProt P02708+Q04844+Q07001); conditions: after intravenous administration
T1 construct: Succinylcholine combines with the cholinergic receptors of the motor end plate to produce depolarization; from tissue; host or cells: motor end plate of skeletal muscle, in vivo after intravenous administration
T1 sequence (P02708 21-457): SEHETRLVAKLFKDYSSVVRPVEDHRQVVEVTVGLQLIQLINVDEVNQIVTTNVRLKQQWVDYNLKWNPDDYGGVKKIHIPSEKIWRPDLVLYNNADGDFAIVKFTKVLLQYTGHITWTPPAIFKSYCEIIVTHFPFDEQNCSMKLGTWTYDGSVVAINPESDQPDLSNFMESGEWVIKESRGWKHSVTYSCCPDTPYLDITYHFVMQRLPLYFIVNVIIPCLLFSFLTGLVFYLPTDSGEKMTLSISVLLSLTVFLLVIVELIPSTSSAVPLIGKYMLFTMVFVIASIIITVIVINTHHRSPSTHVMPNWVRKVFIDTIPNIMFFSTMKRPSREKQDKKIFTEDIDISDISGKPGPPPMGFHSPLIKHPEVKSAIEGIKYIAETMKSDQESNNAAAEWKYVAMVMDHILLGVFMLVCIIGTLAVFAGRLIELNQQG
T1 sequence (Q07001 22-517): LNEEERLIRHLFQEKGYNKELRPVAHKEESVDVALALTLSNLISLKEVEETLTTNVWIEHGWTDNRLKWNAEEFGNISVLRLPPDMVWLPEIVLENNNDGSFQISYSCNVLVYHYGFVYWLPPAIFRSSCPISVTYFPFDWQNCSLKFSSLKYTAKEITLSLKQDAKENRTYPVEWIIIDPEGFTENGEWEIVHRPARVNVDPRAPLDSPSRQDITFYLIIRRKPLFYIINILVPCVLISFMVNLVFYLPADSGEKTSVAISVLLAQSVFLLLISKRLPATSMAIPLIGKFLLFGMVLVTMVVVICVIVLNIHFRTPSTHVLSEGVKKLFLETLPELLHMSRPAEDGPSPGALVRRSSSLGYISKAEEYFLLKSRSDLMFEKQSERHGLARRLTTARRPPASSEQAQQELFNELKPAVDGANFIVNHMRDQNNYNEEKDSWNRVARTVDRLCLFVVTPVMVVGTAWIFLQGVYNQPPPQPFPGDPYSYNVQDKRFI
T1 sequence (Q04844 21-493): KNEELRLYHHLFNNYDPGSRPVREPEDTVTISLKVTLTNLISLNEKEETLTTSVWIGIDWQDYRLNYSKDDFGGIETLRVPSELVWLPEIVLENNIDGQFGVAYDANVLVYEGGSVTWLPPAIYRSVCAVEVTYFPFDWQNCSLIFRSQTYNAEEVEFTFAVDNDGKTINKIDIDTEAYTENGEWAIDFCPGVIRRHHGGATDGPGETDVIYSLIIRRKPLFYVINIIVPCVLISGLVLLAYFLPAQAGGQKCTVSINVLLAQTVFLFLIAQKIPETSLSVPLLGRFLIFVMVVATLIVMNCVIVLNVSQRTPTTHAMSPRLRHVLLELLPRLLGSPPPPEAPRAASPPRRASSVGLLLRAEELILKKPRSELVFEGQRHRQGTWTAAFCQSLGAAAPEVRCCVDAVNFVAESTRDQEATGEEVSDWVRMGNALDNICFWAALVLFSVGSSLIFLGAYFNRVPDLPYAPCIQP
T1 sequence (P11230 24-501 partner): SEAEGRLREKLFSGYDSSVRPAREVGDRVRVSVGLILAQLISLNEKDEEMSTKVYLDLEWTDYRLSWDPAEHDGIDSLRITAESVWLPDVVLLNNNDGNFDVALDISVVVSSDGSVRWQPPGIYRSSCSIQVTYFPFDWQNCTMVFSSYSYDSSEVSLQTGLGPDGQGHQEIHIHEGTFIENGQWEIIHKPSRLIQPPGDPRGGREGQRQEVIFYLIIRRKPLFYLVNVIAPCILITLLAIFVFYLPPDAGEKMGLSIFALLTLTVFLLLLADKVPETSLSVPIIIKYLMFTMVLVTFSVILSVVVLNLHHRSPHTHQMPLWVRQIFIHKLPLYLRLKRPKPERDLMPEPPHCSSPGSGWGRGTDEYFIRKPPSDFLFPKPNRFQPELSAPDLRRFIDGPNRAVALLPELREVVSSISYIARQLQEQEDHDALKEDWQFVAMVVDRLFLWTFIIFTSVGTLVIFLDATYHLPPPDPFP

C[N+](C)(C)CCOC(=O)CCC(=O)OCC[N+](C)(C)C [Succinylcholine chloride, 2,2′-[(1,4-dioxo-1,4-butanediyl)bis(oxy)]bis[N,N,Ntrimethylethanaminium] dichloride]
Onset of flaccid paralysis [1]: less than one | Solubility in alcohol (alcohol): slightly soluble | Solubility in ether (ether): practically insoluble | Solubility in water (water): freely soluble
